Values joined by “and” are separate entries in the source; they are usually repeats but may differ in a detail not shown here. Equal entries are not always repeated.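 Growth conditions: 96-well plates. Treatment: test compound, 48 hours, 5 concentrations. Analysis: linear interpolation between bracketing concentrations; unreached endpoints set to highest concentration. GI50 is the concentration that inhibits growth by half. TGI is the concentration that stops growth completely.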
Columns and labels:
Test in all cases: inhibition of tumour cell growth, NCI panel, 48 h
[1] = tested on: OVCAR-8 ovarian
[2] = tested on: MCF7 breast
[3] = tested on: T-47D breast
[4] = tested on: SK-MEL-2 melanoma
[5] = tested on: SF-268 CNS
[6] = tested on: UACC-62 melanoma
[7] = tested on: NCI-H522 lung
[8] = tested on: SR leukemia
[9] = tested on: HT29 colon
[10] = tested on: SNB-75 CNS

Row | Compound | GI50 [1] | TGI [1] | GI50 [2] | TGI [2] | GI50 [3] | TGI [3] | GI50 [4] | TGI [4] | GI50 [5] | TGI [5] | GI50 [6] | TGI [6] | GI50 [7] | TGI [7] | GI50 [8] | TGI [8] | GI50 [9] | TGI [9] | GI50 [10] | TGI [10]
1 | O=C(Nc1ccc(Cl)c(Cl)c1)c1ccc(NC2=C(Cl)C(=O)N(Cc3ccccc3)C2=O)cc1 | 2.6 µM | 4.41 µM | 2.1 µM | 4.82 µM | 31.6 µM | 92 µM | 10.1 µM | 22.1 µM | 8.26 µM | 24 µM | 4.93 µM | 17.7 µM | 13.1 µM | 27.2 µM | 2.23 µM | 5.27 µM | 16.5 µM | > 100 µM | 16.1 µM | 56.4 µM
2 | O=C1C2=C(C(=O)c3ccccc31)C(O)(S(=O)(=O)O)C(O)(S(=O)(=O)O)C1N=CC=CC21 (stereo not drawn) | 3.46 µM and 4.23 µM | > 100 µM and 18.6 µM | 4.9 µM and 3.26 µM | 29.1 µM and 27.2 µM | 3.97 µM and 4.7 µM | 28.5 µM and 30.7 µM | 10.1 µM and 9.93 µM | 70.3 µM and 33.1 µM | 3.93 µM and 5.96 µM | 41.4 µM and 32.1 µM | 6.17 µM and 4.52 µM | 19.4 µM and 18.7 µM | 4.8 µM and 2.13 µM | 39.6 µM and 5.71 µM | 4.58 µM and 1.14 µM | > 100 µM and 50.1 µM | 5.84 µM and 4.51 µM | > 100 µM and 20.8 µM | 4.08 µM and 3.17 µM | 41.9 µM and 19.6 µM
3 | COC(=O)[C@]1(C)CCC[C@@]2(C)C3=C(CC[C@H]12)C[C@@H](CC(OC(C)=O)OC(C)=O)[C@@H](C)C3 | 10.2 µM | 20.5 µM | 7.99 µM | 18.5 µM | 4.17 µM | 13.7 µM | 15.9 µM | > 37.4 µM | 7.85 µM | 16.9 µM | 8.82 µM | 19.4 µM | > 28 µM | > 50 µM | 11.2 µM | > 50 µM | 18 µM | > 50 µM | 14.1 µM | 30.5 µM
4 | O=C1/C=C/[C@@H](O)[C@@H]2C[C@@H](O)C[C@H]2/C=C/CCC[C@H](CCO)O1 | 0.153 µM | – | 0.188 µM | 0.558 µM | 0.239 µM | 0.804 µM | 0.244 µM | 0.734 µM | 0.0782 µM | > 73 µM | 0.186 µM | > 100 µM | 0.211 µM | 0.604 µM | 0.297 µM | – | 0.0841 µM | 1.31 µM | 0.0994 µM | > 100 µM
5 | COc1cc(OC)c(/C=C/C(=O)c2c(OC)cc(OC)cc2OC)c(OC)c1 | 3.43 µM | > 100 µM | 1.41 µM | > 100 µM | 2.01 µM | > 100 µM | 0.984 µM | > 21.8 µM | 1.84 µM | 6.96 µM | 0.414 µM | 4.14 µM | 0.515 µM | 4.18 µM | 0.206 µM | 0.761 µM | 0.381 µM | 2.1 µM | 1.83 µM | > 26.2 µM
6 | CCC(=O)NC1=C(Cl)C(=O)C(NC(=O)CC)=C(Cl)C1=O | 37.4 µM | > 60.6 µM | 9.51 µM | 28.3 µM | 5.51 µM | 14.2 µM | 20.6 µM | 39.5 µM | 19.7 µM | 34.2 µM | 29.7 µM | > 57.3 µM | 5.86 µM | 10.7 µM | 8.13 µM | > 23.2 µM | 25.2 µM | 53.3 µM | 13.7 µM | 18.1 µM
7 | CN1CCN(Cc2ccc(NC(=O)c3cncc(C#Cc4ccc(N)nc4)c3)cc2C(F)(F)F)CC1 | 1.73 µM | 9.9 µM | 1.23 µM | 7.22 µM | 1.35 µM | 7.14 µM | 0.363 µM | 1.36 µM | 1.09 µM | 5.3 µM | 0.945 µM | 3.48 µM | 0.774 µM | 6.2 µM | 0.679 µM | 3.51 µM | 0.728 µM | 4.59 µM | 1.06 µM | 3.53 µM
8 | COc1cc2ncnc(Oc3ccc(NC(=O)Nc4ccc(CN5CCOCC5)c(C(F)(F)F)c4)c4ccccc34)c2cc1OC | 0.537 µM | 6.53 µM | 0.363 µM | 10.7 µM | 0.477 µM | 5.17 µM | 1.61 µM | 8.3 µM | 0.453 µM | 8.94 µM | 0.637 µM | 3 µM | 0.419 µM | 3.25 µM | 0.752 µM | 6.02 µM | 0.547 µM | 10.3 µM | 0.957 µM | 12.8 µM
9 | CCC(=O)OCOc1ccc(/C=C2\CCC(CN(C)C)C2=O)cc1 (stereo not drawn) | – | 11.2 µM | – | 10.1 µM | – | 9 µM | – | 27.9 µM | – | 22.5 µM | – | 13.6 µM | – | 4.41 µM | – | 9.25 µM | – | 25.7 µM | – | 27.6 µM
10 | CCN1CCN(c2ccc(NC(=O)Nc3nc4ccc(-c5ccccc5OC)cc4s3)cc2)CC1 | 1.99 µM | 3.66 µM | 1.31 µM | 2.86 µM | 1.58 µM | 3.61 µM | 1.94 µM | 3.61 µM | 1.87 µM | 3.63 µM | 1.87 µM | 3.45 µM | 1.75 µM | 3.5 µM | 1.65 µM | 4.31 µM | 1.31 µM | 2.7 µM | 1.49 µM | 2.86 µM
11 | CC1=CC(C)=N/C(=N/S(=O)(=O)c2cc(C)c(Cl)cc2SCc2ccccc2)NN1 | > 100 µM | > 100 µM | > 100 µM | > 100 µM | > 100 µM | > 100 µM | > 100 µM | > 100 µM | 78.1 µM | > 100 µM | > 100 µM | > 100 µM | 96.6 µM | > 100 µM | > 100 µM | > 100 µM | > 100 µM | > 100 µM | 32.5 µM | > 100 µM
12 | C=C1C(=O)O[C@@H]2/C=C(/C)[C@@H](OC(C)=O)C[C@@H](O)/C(C)=C\[C@@H](OC(=O)[C@]3(C)O[C@@H]3C)[C@@H]12 | – | 27.4 µM | – | 18.1 µM | – | 24.1 µM | – | 33.9 µM | – | 41.8 µM | – | 31.9 µM | – | 2.81 µM | – | 21.5 µM | – | 30.7 µM | – | 37.6 µM
13 | CC1=C(CCC(C)CO)O[C@H]2C[C@H]3[C@@H]4CC[C@H]5C[C@@H](O)CC[C@]5(C)[C@H]4CC(=O)[C@]3(C)[C@@H]12 (stereo partly drawn) | – | 44.3 µM | – | > 59.4 µM | – | 29.2 µM | – | 30.6 µM | – | 57.6 µM | – | 18.1 µM | – | 30.3 µM | – | 36.4 µM | – | 71.8 µM | – | 50.5 µM
